Measurements published in article PMC4459106 (Scientific Reports, 2015).

What was measured:
ERK2 = settings: cited from earlier work
Excerpt: While the biological relevance of this finding is debatable, care should be taken while analyzing in vitro data from studies that employ F-site and D-site containing ligands simultaneously.

[1] = biological target: T1, ppERK2 (D-recruitment site, DRS) (Rattus norvegicus, UniProt P63086); test: NMR 15N,1H TROSY titration of ppERK2 with peptide ligand (CSPs; DRS affinity by two-site fit); format: binding, rat (rat ERK2 numbering used throughout); settings: 130 μM ppERK2, 50 mM HEPES pH 6.8, KIM15-31 up to 992.0 μM
T1 construct: made in house
Procedure: Spectral perturbations on ppERK2 were assessed from ^15N, ^1H TROSY experiments at 600 MHz and 25.0 °C using 1024 and 128 complex points and sweep-widths of 15 and 33 ppm in the ^1H and ^15N dimensions, respectively. […] A 130 μM sample of ppERK2 in a buffer containing 50 mM HEPES pH 6.8, 150 mM NaCl, 200 μM EDTA and 2 mM DTT was titrated with the following amounts of KIM15-31: 49.2, 99,8, 149.0, 296.2, 450.6, 992.0 μM.

ppERK2 = biological target: T2, ppERK2 (Rattus norvegicus, UniProt P63086); test: Fluorescence-based kinase assay, phosphorylation of ERK-sensor-D1 by ppERK2; format: biochemical, rat (rat ERK2 numbering used throughout); settings: for Km: 2 nM ppERK2, 25 mM HEPES pH 7.5, 10 mM MgCl2, 28 °C, fluorescence 360/492 nm; for Vmax: 2 nM ppERK2, 25 mM HEPES pH 7.5, 28 °C
T2 construct: made in house
Procedure: The ERK-sensor-D1 peptide[57] […] The reaction was initiated after 1 hour of pre-incubation at room temperature by adding 10 μL of 5 mM Mg^2+/ATP to 90 μL of assay mixture and the fluorescence intensity was recorded at each time point for a total of 6 minutes on a Fluorolog fluorimeter (Horiba Jobin Yvon) in quartz cuvettes (Starna Cells) with a 10 mm path length and a reaction volume of 100 μL. The sample was excited at 360 nm and fluorescence was monitored at 492 nm using excitation and emission slit widths of 3 nm. The change in fluorescence was related to the progression of the reaction using a previously determined conversion factor[58].

T2 sequence (P63086 whole entry): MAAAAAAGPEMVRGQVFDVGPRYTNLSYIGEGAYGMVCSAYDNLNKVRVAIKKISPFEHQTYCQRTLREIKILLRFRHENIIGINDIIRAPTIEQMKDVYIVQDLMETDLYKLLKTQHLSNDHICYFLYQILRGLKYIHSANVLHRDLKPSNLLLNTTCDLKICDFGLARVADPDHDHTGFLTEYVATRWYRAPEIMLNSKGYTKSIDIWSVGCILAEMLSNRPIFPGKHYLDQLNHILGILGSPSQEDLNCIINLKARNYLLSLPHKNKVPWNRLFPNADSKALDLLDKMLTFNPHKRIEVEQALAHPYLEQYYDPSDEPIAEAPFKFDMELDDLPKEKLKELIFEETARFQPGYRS
T1 sequence (P63086 whole entry): as above

For “Ets-1: transcription factor possessing neither a canonical D-site nor F-site”, the “binding to ERK2” value (ERK2) is listed as “efficiently bind ERK2”.
With “KIM15-31: DRS specific ligand (TLSLGAAMTQPPPEKTP; UniProt P35236 15-31, looked up, fragment)” the “CSPs on titration of ppERK2 with KIM15-31” value [1] was “the only significant CSPs are seen at the DRS and no significant long-range perturbations including at the FRS, are noted”.
For “PEA-15: anti-apoptotic small adaptor protein without canonical D-site or F-site sequences”, the “binding to ERK2” value (ERK2) is given as “efficiently bind ERK2”.
“QRKTLQRRNLKGLNLNL-X3-TGPLSPC-Sox-PF [ERK-sensor-D1]” gave a Km (ppERK2; absence of Elk387-399) of 10.1 ± 0.8 µM, a Vmax (ppERK2; absence of Elk387-399) of 21.4 ± 0.5 nM phosphate/second and a Km (ppERK2; presence of 100 μM Elk387-399) of 22.7 ± 2.8 µM. The Vmax (ppERK2; presence of 100 μM Elk387-399) was 23.4 ± 1.1 nM phosphate/second.
For c-Fos: F-site containing c-Fos, the “increase in apparent KD of interaction with ppERK2 on DRS mutation” value (ERK2; F-site containing c-Fos, DRS-mutant vs native ERK2) is listed as 2-3 -fold.
